# Measurements as given in the supplement of paper PMC8253809.
# What was measured:
# HGGX6 [1] = H3.3 G34R paediatric high-grade glioma line; experiment: EC50 (inflection of fitted growth-inhibition curve) (log10 M)
# Outline: (§1)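 EC50 and maximal response (yFin) were derived from the lowest-AICc fit, either three- or four-parameter log-logistic. The data were pooled CellTiter-Glo luminescence values, log2-transformed and normalised per plate to % activity between negative (solvent) and positive controls. Patient-derived pHGG/DIPG cell lines and astrocyte controls on 1% Geltrex-coated 384-well plates received a 10-point threefold dilution series (mean top concentration 35 μM) by pin tool, in triplicate, for 7 days (iAstro 3 days) at 37 °C, 5% CO2.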
# DIPGX7 = H3.3 K27M diffuse intrinsic pontine glioma line; experiment: maximal growth inhibition (yFin) relative to DMSO / staurosporine; higher = more efficacious
# Outline: as §1
# DIPGX9 = diffuse intrinsic pontine glioma line; experiment: as above
# Outline: as §1
# SUDIPGVI = diffuse intrinsic pontine glioma line; experiment: as above
# Outline: as §1
# SUDIPGXIII = diffuse intrinsic pontine glioma line; experiment: as above
# Outline: as §1
# HGGX39 = paediatric high-grade glioma line; experiment: as above
# Outline: as §1
# SUDIPGXIX = diffuse intrinsic pontine glioma line; experiment: as above
# Outline: as §1
# HABS = astrocyte control; experiment: as above
# Outline: as §1
# HGGX6 [2] = experiment: as above
# Outline: as §1
# HGGX2 = paediatric high-grade glioma line; experiment: as above
# Outline: as §1
# iAstro = astrocyte control; experiment: as above
# Outline: as §1
# DIPGX29 = H3.3 K27M diffuse intrinsic pontine glioma line; experiment: as above
# Outline: as §1
# HGGX42 = H3.3 G34R paediatric high-grade glioma line; experiment: as above
# Outline: as §1
# DIPGX37 = H3.3 K27M diffuse intrinsic pontine glioma line; experiment: as above
# Outline: as §1
# SUDIPGXVII = diffuse intrinsic pontine glioma line; experiment: as above
# Outline: as §1
# SUDIPGIV = diffuse intrinsic pontine glioma line; experiment: as above
# Outline: as §1
# SUDIPGXXI = diffuse intrinsic pontine glioma line; experiment: as above
# Outline: as §1
Compound,EC50 (log10 M) (HGGX6 [1]),maximal growth inhibition (DIPGX7),maximal growth inhibition (DIPGX9),maximal growth inhibition (SUDIPGVI),maximal growth inhibition (SUDIPGXIII),maximal growth inhibition (HGGX39),maximal growth inhibition (SUDIPGXIX),maximal growth inhibition (HABS),maximal growth inhibition (HGGX6 [2]),maximal growth inhibition (HGGX2),maximal growth inhibition (iAstro),maximal growth inhibition (DIPGX29),maximal growth inhibition (HGGX42),maximal growth inhibition (DIPGX37),maximal growth inhibition (SUDIPGXVII),maximal growth inhibition (SUDIPGIV),maximal growth inhibition (SUDIPGXXI)
COc1cccc2c1C(=O)c1c(O)c3c(c(O)c1C2=O)C[C@@](O)(C(=O)CO)C[C@@H]3O[C@H]1C[C@H](N)[C@H](O)[C@H](C)O1 [DOXORUBICIN],-5.69,103%,99.9%,89.1%,87.7%,101%,97.2%,69.6%,86.1%,61.1%,26.4%,102%,96.5%,86.8%,95.8%,97.8%,95.8%
CCCCc1oc2ccc(NS(C)(=O)=O)cc2c1C(=O)c1ccc(OCCCN(CCCC)CCCC)cc1 [DRONEDARONE],-5.14,120%,123%,121%,117%,106%,123%,119%,93.4%,116%,104%,104%,119%,99.7%,122%,122%,127%
CCOC(=O)CCNc1cc(N2CCc3ccccc3CC2)nc(-c2ccccn2)n1 [GSK-J4],-4.85,46.7%,94.2%,44.1%,48.1%,63.1%,98.3%,72.9%,62.6%,100%,69.4%,69.6%,100%,56.1%,55.2%,61.5%,112%
O=C(c1ccc(Nc2nccc(-c3cc4ccccc4s3)n2)cc1)N1CCC(N2CCCC2)CC1 [IKK 16],-4.83,108%,122%,104%,114%,119%,128%,124%,106%,104%,94.4%,117%,107%,120%,118%,115%,120%
CC(C)C[C@H](NC(=O)CNC(=O)c1cc(Cl)ccc1Cl)B(O)O [IXAZOMIB],-7.27,81.4%,82.6%,73.9%,77.3%,84.7%,88.1%,84.1%,79.4%,86%,67.4%,77.5%,70.6%,79.9%,81%,89.4%,86.4%
"Cc1c(C2CCN(CCc3ccccc3)CC2)noc1-c1ccc(Cl)cc1 [L-741,742]",-4.87,104%,22.2%,44.4%,22.9%,84%,27.2%,31.3%,69.7%,42.8%,43.2%,82.8%,74.2%,101%,34.3%,77.7%,106%
C[C@@]12OC(=O)[C@]1([C@@H](O)[C@@H]1C=CCCC1)NC(=O)[C@@H]2CCCl [MARIZOMIB],-6.1,101%,101%,103%,28.3%,96.6%,94.2%,54.9%,55.2%,98.7%,89.6%,32.8%,62.8%,99.7%,40.4%,119%,109%
Nc1ccccc1NC(=O)c1ccc(CNc2nccc(-c3cccnc3)n2)cc1 [MOCETINOSTAT],-5.51,104%,103%,97.2%,74.1%,96.8%,100%,94.6%,84.8%,96.5%,38.2%,78.5%,78%,96%,93%,104%,126%
O=C(Nc1ccc([N+](=O)[O-])cc1Cl)c1cc(Cl)ccc1O [NICOLSAMIDE],-5.18,86%,94%,74.1%,84.2%,96.9%,89%,82.4%,71.9%,93.8%,34.7%,78.2%,87.9%,81.9%,88.7%,92.4%,110%
CCNC(=O)c1noc(-c2cc(C(C)C)c(O)cc2O)c1-c1ccc(CN2CCOCC2)cc1 [NVP-AUY922],-7.36,48.5%,84.4%,35.2%,61.3%,80.3%,76.3%,86.9%,29.6%,49.9%,51%,80.4%,34.4%,82.2%,63.9%,55.9%,115%
CCCS(=O)(=O)c1nc(NC2CC2)cc(-c2ccc3c(ccn3C3CC(C)(C)NC(C)(C)C3)c2)n1 [NVS-1],-5.83,95.1%,88.9%,88.4%,88.4%,82.8%,90.7%,86.9%,79.3%,86.7%,83.2%,82.2%,88.2%,79.6%,88.4%,90.5%,104%
COC1=CC(c2cc3ccccc3[nH]2)=N/C1=C\c1[nH]c(C)cc1C [OBATOCLAX],-5.1,129%,131%,128%,108%,124%,143%,128%,123%,115%,101%,126%,119%,128%,128%,131%,127%
C[C@@H]1O[C@@H](O[C@H]2C[C@@H](O)[C@]3(CO)[C@H]4[C@H](O)C[C@]5(C)[C@@H](C6=CC(=O)OC6)CC[C@]5(O)[C@@H]4CC[C@]3(O)C2)[C@H](O)[C@H](O)[C@H]1O [OUABAIN],-6.64,100%,70.1%,60.1%,46.9%,75.1%,83.6%,69.1%,64.9%,63.9%,47.1%,53.4%,53.3%,46.7%,73.5%,103%,90.6%
Cc1[nH]c2ccccc2c1CCNCc1ccc(/C=C/C(=O)NO)cc1 [PANOBINOSTAT],-6.93,89%,90.7%,86.9%,93.9%,75.6%,106%,95.2%,73.9%,90%,48%,76.5%,95.5%,76.5%,90.9%,86.4%,110%
OC1(c2ccc(Cl)c(C(F)(F)F)c2)CCN(CCCC(c2ccc(F)cc2)c2ccc(F)cc2)CC1 [PENFLURIDOL],-5.23,102%,105%,98.5%,92.8%,91%,97.4%,88.6%,84.9%,98.9%,85.2%,94.8%,98.5%,93.5%,95.6%,97.2%,106%
Cc1ccc(C(=O)Nc2ccc(CN3CCN(C)CC3)c(C(F)(F)F)c2)cc1C#Cc1cnc2cccnn12 [PONATINIB],-5.11,101%,94.2%,97.8%,96%,99.3%,99.8%,103%,97.4%,99.6%,95%,104%,99%,101%,101%,100%,97.2%
O=C(Nc1ccccc1-c1cn2c(CN3CCNCC3)csc2n1)c1cnc2ccccc2n1 [SRT1720],-5.14,102%,103%,93.9%,94.6%,95.5%,104%,98.3%,90.5%,99.1%,91.6%,94.6%,102%,94.6%,99.2%,104%,105%
CCN(CC)CCNC(=O)c1c(C)[nH]c(/C=C2\C(=O)Nc3ccc(F)cc32)c1C [SUNITINIB],-4.88,116%,117%,108%,113%,105%,129%,122%,107%,108%,97.5%,103%,112%,101%,120%,119%,115%
CN(C)C/C=C/C(=O)Nc1ccc(C(=O)Nc2cccc(Nc3ncc(Cl)c(-c4c[nH]c5ccccc45)n3)c2)cc1 [THZ1],-7.28,88.6%,88.7%,85.3%,85%,86.2%,84.4%,100%,81.5%,97.5%,99.1%,87.4%,110%,81.3%,87.2%,87.4%,107%
